Calls of active or inactive are those of the source. No cut-off for these calls is given here.
Columns and labels:
THP-1 [1] = test: Induction of apoptosis in human THP-1 cells assessed as late apoptotic cells at 1 uM incubated for 48 hrs by Annexin V-FITC/PI staining based flow cytometry (reference value: 0.74 %); type: functional
THP-1 [2] = test: Induction of apoptosis in human THP-1 cells assessed as necrotic cells at 1 uM incubated for 48 hrs by Annexin V-FITC/PI staining based flow cytometry (reference value: 2.48 %); type: functional
[3] = biological target: Signal transducer and activator of transcription 3 (Homo sapiens) (UniProt P40763); test: Inhibition of STAT3 phosphorylation in human KG-1 cells at 0.5 to 2.5 uM incubated for 48 hrs by Western blot analysis; type: cell-based; details: dose 0.5-2.5 µM
SK-OV-3 [4] = test: Downregulation of XIAP expression in human SK-OV-3 cells incubated for 48 hrs by Western blot analysis; type: functional, cell-based
SK-OV-3 [5] = test: Induction of apoptosis in human SK-OV-3 cells assessed as change in mitochondrial membrane potential at 1 uM incubated for 48 hrs by JC-1 staining based flow cytometry (reference value: 5.34 %); type: functional
SK-OV-3 [6] = test: Induction of apoptosis in human SK-OV-3 cells assessed as change in mitochondrial membrane potential at 5 uM incubated for 48 hrs by JC-1 staining based flow cytometry (reference value: 5.34 %); type: functional
THP-1 [7] = test: Induction of apoptosis in human THP-1 cells assessed as viable cells at 0.5 uM incubated for 48 hrs by Annexin V-FITC/PI staining based flow cytometry (reference value: 96.33 %); type: functional; details: read-out: Activity
THP-1 [8] = test: Induction of apoptosis in human THP-1 cells assessed as necrotic cells at 2.5 uM incubated for 48 hrs by Annexin V-FITC/PI staining based flow cytometry (reference value: 2.48 %); type: functional
[9] = biological target: Signal transducer and activator of transcription 3 (Homo sapiens) (UniProt P40763); test: Inhibition of STAT3 phosphorylation in human THP-1 cells at 0.5 to 2.5 uM incubated for 48 hrs by Western blot analysis; type: cell-based; details: dose 0.5-2.5 µM
THP-1 [10] = test: Antiproliferative activity against human THP-1 cells assessed as inhibition of cell growth incubated for 72 hrs by MTT assay; type: functional, cell-based; details: THP-1, 72 h
SK-OV-3 [11] = test: Induction of apoptosis in human SK-OV-3 cells assessed as necrotic cells at 2.5 uM incubated for 48 hrs by Annexin V-FITC/PI staining based flow cytometry (reference value: 4.45 %); type: functional
THP-1 [12] = test: Induction of apoptosis in human THP-1 cells assessed as late apoptotic cells at 0.5 uM incubated for 48 hrs by Annexin V-FITC/PI staining based flow cytometry (reference value: 0.74 %); type: functional
SK-OV-3 [13] = test: Induction of apoptosis in human SK-OV-3 cells assessed as viable cells at 5 uM incubated for 48 hrs by Annexin V-FITC/PI staining based flow cytometry (reference value: 90.97 %); type: functional; details: read-out: Activity
THP-1 [14] = test: Induction of apoptosis in human THP-1 cells assessed as necrotic cells at 0.5 uM incubated for 48 hrs by Annexin V-FITC/PI staining based flow cytometry (reference value: 2.48 %); type: functional
SK-OV-3 [15] = test: Induction of apoptosis in human SK-OV-3 cells assessed as late apoptotic cells at 2.5 uM incubated for 48 hrs by Annexin V-FITC/PI staining based flow cytometry (reference value: 4.51 %); type: functional
U-937 = test: Antiproliferative activity against human U-937 cells assessed as inhibition of cell growth incubated for 72 hrs by MTT assay; type: functional, cell-based; details: U-937, 72 h
SK-OV-3 [16] = test: Induction of apoptosis in human SK-OV-3 cells assessed as early apoptotic cells at 1 uM incubated for 48 hrs by Annexin V-FITC/PI staining based flow cytometry (reference value: 0.08 %); type: functional
SK-OV-3 [17] = test: Induction of apoptosis in human SK-OV-3 cells assessed as necrotic cells at 5 uM incubated for 48 hrs by Annexin V-FITC/PI staining based flow cytometry (reference value: 4.45 %); type: functional
THP-1 [18] = test: Induction of apoptosis in human THP-1 cells assessed as early apoptotic cells at 0.5 uM incubated for 48 hrs by Annexin V-FITC/PI staining based flow cytometry (reference value: 0.45 %); type: functional
SK-OV-3 [19] = test: Induction of apoptosis in human SK-OV-3 cells assessed as early apoptotic cells at 5 uM incubated for 48 hrs by Annexin V-FITC/PI staining based flow cytometry (reference value: 0.08 %); type: functional
[20] = Antiproliferative activity against human SK-OV-3/Taxol cells assessed as inhibition of cell growth incubated for 72 hrs by MTT assay; type: functional, cell-based; details: SK-OV-3, 72 h
THP-1 [21] = test: Induction of apoptosis in human THP-1 cells assessed as early apoptotic cells at 1 uM incubated for 48 hrs by Annexin V-FITC/PI staining based flow cytometry (reference value: 0.45 %); type: functional
THP-1 [22] = test: Induction of apoptosis in human THP-1 cells assessed as change in mitochondrial membrane potential at 0.5 uM incubated for 48 hrs by JC-1 staining based flow cytometry (reference value: 5.15 %); type: functional
THP-1 [23] = test: Induction of apoptosis in human THP-1 cells assessed as viable cells at 1 uM incubated for 48 hrs by Annexin V-FITC/PI staining based flow cytometry (reference value: 96.33 %); type: functional; details: read-out: Activity
SK-OV-3 [24] = test: Induction of apoptosis in human SK-OV-3 cells assessed as necrotic cells at 1 uM incubated for 48 hrs by Annexin V-FITC/PI staining based flow cytometry (reference value: 4.45 %); type: functional
THP-1 [25] = test: Induction of apoptosis in human THP-1 cells assessed as late apoptotic cells at 2.5 uM incubated for 48 hrs by Annexin V-FITC/PI staining based flow cytometry (reference value: 0.74 %); type: functional
THP-1 [26] = test: Induction of apoptosis in human THP-1 cells assessed as change in mitochondrial membrane potential at 2.5 uM incubated for 48 hrs by JC-1 staining based flow cytometry (reference value: 5.15 %); type: functional
SK-OV-3 [27] = test: Induction of apoptosis in human SK-OV-3 cells assessed as viable cells at 1 uM incubated for 48 hrs by Annexin V-FITC/PI staining based flow cytometry (reference value: 90.97 %); type: functional; details: read-out: Activity
THP-1 [28] = test: Induction of apoptosis in human THP-1 cells assessed as change in mitochondrial membrane potential at 1 uM incubated for 48 hrs by JC-1 staining based flow cytometry (reference value: 5.15 %); type: functional
SK-OV-3 [29] = test: Induction of apoptosis in human SK-OV-3 cells assessed as change in mitochondrial membrane potential at 2.5 uM incubated for 48 hrs by JC-1 staining based flow cytometry (reference value: 5.34 %); type: functional
SK-OV-3 [30] = test: Induction of apoptosis in human SK-OV-3 cells assessed as late apoptotic cells at 5 uM incubated for 48 hrs by Annexin V-FITC/PI staining based flow cytometry (reference value: 4.51 %); type: functional
THP-1 [31] = test: Induction of apoptosis in human THP-1 cells assessed as viable cells at 2.5 uM incubated for 48 hrs by Annexin V-FITC/PI staining based flow cytometry (reference value: 96.33 %); type: functional; details: read-out: Activity
SK-OV-3 [32] = test: Induction of apoptosis in human SK-OV-3 cells assessed as viable cells at 2.5 uM incubated for 48 hrs by Annexin V-FITC/PI staining based flow cytometry (reference value: 90.97 %); type: functional; details: read-out: Activity
SK-OV-3 [33] = test: Induction of apoptosis in human SK-OV-3 cells assessed as late apoptotic cells at 1 uM incubated for 48 hrs by Annexin V-FITC/PI staining based flow cytometry (reference value: 4.51 %); type: functional

Sequence of Signal transducer and activator of transcription 3 (Homo sapiens) (P40763 whole entry): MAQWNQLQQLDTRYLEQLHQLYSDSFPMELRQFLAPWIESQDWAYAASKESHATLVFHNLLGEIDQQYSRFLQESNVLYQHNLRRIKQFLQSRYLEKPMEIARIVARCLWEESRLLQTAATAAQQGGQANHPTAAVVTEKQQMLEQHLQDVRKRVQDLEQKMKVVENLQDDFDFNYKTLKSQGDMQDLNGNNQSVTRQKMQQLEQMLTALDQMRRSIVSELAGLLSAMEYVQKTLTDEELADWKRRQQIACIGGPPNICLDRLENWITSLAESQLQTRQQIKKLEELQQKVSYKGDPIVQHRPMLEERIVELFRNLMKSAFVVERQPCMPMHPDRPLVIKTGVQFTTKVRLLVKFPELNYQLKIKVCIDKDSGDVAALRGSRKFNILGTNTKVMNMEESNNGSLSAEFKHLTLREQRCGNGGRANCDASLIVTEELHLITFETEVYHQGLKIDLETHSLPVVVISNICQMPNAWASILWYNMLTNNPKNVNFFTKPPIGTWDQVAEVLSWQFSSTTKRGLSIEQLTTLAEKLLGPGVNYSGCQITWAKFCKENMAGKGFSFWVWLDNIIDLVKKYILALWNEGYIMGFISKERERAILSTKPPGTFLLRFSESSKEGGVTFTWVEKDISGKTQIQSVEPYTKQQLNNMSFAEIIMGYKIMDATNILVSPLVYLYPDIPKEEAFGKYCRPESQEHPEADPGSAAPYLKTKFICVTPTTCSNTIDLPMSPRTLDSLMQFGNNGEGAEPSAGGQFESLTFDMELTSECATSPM

SMILES	Activity (THP-1 [1]) [%]	Activity (THP-1 [2]) [%]	inhibition [3]	Activity (SK-OV-3 [4])	Activity (SK-OV-3 [5]) [%]	Activity (SK-OV-3 [6]) [%]	viability at 0.5 µM (THP-1 [7]) [%]	Activity (THP-1 [8]) [%]	inhibition [9]	IC50 (THP-1 [10]) [µM]	Activity (SK-OV-3 [11]) [%]	Activity (THP-1 [12]) [%]	viability at 5 µM (SK-OV-3 [13]) [%]	Activity (THP-1 [14]) [%]	Activity (SK-OV-3 [15]) [%]	IC50 (U-937) [µM]	Activity (SK-OV-3 [16]) [%]	Activity (SK-OV-3 [17]) [%]	Activity (THP-1 [18]) [%]	Activity (SK-OV-3 [19]) [%]	further results
CCc1nccnc1C(=O)/C=C/c1ccccn1	1.73	1.94	Active	Dose-dependent-effect	11.51	31.28	93.5	1.77	Active	0.6	9.16	1.53	44.6	2.41	23.46	0.69	0.37	8.84	2.51	1.46	IC50 [20]: 1.24 µM; Activity (THP-1 [21]): 4.75%; Activity (THP-1 [22]): 6.52%; viability at 1 µM (THP-1 [23]): 91.6%; Activity (SK-OV-3 [24]): 8.98%; Activity (THP-1 [25]): 3.26%; Activity (THP-1 [26]): 26.66%; viability at 1 µM (SK-OV-3 [27]): 71.2%; Activity (THP-1 [28]): 9.01%; Activity (SK-OV-3 [29]): 17.88%; Activity (SK-OV-3 [30]): 45.06%; viability at 2.5 µM (THP-1 [31]): 81.9%; viability at 2.5 µM (SK-OV-3 [32]): 67%; Activity (SK-OV-3 [33]): 19.41%
Cc1nccnc1C(=O)/C=C/c1cccc(C#N)c1	1.94	2.24	Active	Dose-dependent-effect	13.1	53.8	93.3	2.27	Active	1.52	9.29	1.46	22.5	1.78	26.65	1.73	1.09	9.68	3.41	2.19	IC50 [20]: 1.42 µM; Activity (THP-1 [21]): 3.12%; Activity (THP-1 [22]): 6.42%; viability at 1 µM (THP-1 [23]): 92.7%; Activity (SK-OV-3 [24]): 5.49%; Activity (THP-1 [25]): 4.82%; Activity (THP-1 [26]): 29.42%; viability at 1 µM (SK-OV-3 [27]): 72.4%; Activity (THP-1 [28]): 7.94%; Activity (SK-OV-3 [29]): 18.87%; Activity (SK-OV-3 [30]): 65.66%; viability at 2.5 µM (THP-1 [31]): 77.8%; viability at 2.5 µM (SK-OV-3 [32]): 63.3%; Activity (SK-OV-3 [33]): 21.04%
